In US20180339051A1, “COMPOSITION FOR TOPICAL APPLICATION COMPRISING DIMETHYL ISOSORBIDE, A POLYOL, AND A PHENOLIC OR POLYPHENOLIC ANTIOXIDANT” (MEDSKIN SOLUTIONS DR. SUWELACK AG, priority 2015, published 2018) one finds SAP value and solubility in water data, which are given here for 2 compounds.

In one data set the test system is pig skin biopsies. Kind of data set: Skin Antioxidative Potential (SAP), ESR with test radical TEMPO, ex vivo. The following applies: normalized to placebo-treated skin = 100%. It is filed as cell-based. From the text:
Skin has intrinsic antioxidative protection thanks to the many enzymatic and non-enzymatic antioxidant systems present in the epidermis. A Skin Antioxidative Potential (SAP) can be measured by ESR spectroscopy using an active test radical that is reduced by the antioxidant systems inside the epidermis and dermis. The SAP value is a quantitative ex vivo determination of the antioxidant activity inside the epidermal and dermal layers of the skin.
In contrast, if the SAP value is below 100%, the topical treatment has diminished the skin's antioxidant defense system. Topical treatments with such negative effects on the skin antioxidant system are for example application of a chemical such as detergents or physical stress such as sun exposure.
The method entails applying the composition comprising the active substance (in this case resveratrol) to pig skin biopsies and testing the antioxidative power of the active substance. The antioxidative effect is dependent on whether the active substance is absorbed into the skin.
The measurements mere carried out as follows. Skin biopsies obtained from local slaughterhouse (pig skin, 6 month old animals, external lobe of the ears) were washed, the subdermal fat was removed and the skin was cut in 2×2 cm pieces.
Emulsions made as in example 2, with or without resveratrol, and with or without a solubiliser mix (dimethyl isosorbide, 1,5-pentanediol and panthenol) were applied on the epidermal layer of the biopsies. Skin pieces were placed on a filter paper saturated with the test radical (TEMPO, 2,2,6,6-tetramethyl piperidine-N-oxyl, Sigma-Aldrich, Munich, Germany). Skin biopsies of 4 cm were taken, placed in a special ESR tissue cell and ESR spectra of the test radical were recorded in a time-course experiment.
The amplitudes of the ESR spectra were plotted against time and the obtained kinetics were fitted using a mono-exponential first order decay algorithm.
The measurements were made after penetration times of between ten minutes and four hours. All values were normalized to the placebo-treated skin. […]

The format of data set [1] is physicochemical. On the procedure: Concretely, 10 ml of a pure solvent or a solubiliser mixture were stirred in a beaker at ambient temperature. An amount of 2 mg phenolic or polyphenolic antioxidant was dispersed in the mixture and stirred. If the mixture became clear, the addition of phenolic or polyphenolic antioxidant was repeated until the mixture remained turbid even after stirring for 10 min. The maximum solubility was calculated as a percentage by mass (wt %) based on this experiment.

Turning to tocopherol, the SAP value is on record as 114 ± 3% in the data set with pig skin biopsies (penetration time 10 min), 103 ± 6% in the data set with pig skin biopsies (penetration time 30 min) and 100 ± 6% in the data set with pig skin biopsies (penetration time 120 min).
With `Oc1ccc(/C=C/c2cc(O)cc(O)c2)cc1` [Resveratrol, 3,5,4′-trihydroxy-trans-stilbene], in data set [1], the solubility in water entry is recorded as “less than 0.01 wt %”.
